Data taken from patent US10905769B2, “Peptide and peptide mimetic binding antagonists of polo-like kinase 1 polo box domain and methods of use” (priority 2015, dated 2021).
Like-named read-outs stand apart in the source and are kept apart here. Peptide text beside a SMILES is read from it.

Columns and labels:
[1] = biological target: T1, full-length Plk1 (Homo sapiens, UniProt P53350); assay: ELISA inhibition assay: full-length Plk1 binding to immobilized pThr-containing peptide; settings: FIG. 5A/5B
T1 construct: Plasmids encoding full length Plk1 (Plasmid #41160); host or cells: HEK293T, crude cytosolic lysate
T1 sequence (P53350 whole entry): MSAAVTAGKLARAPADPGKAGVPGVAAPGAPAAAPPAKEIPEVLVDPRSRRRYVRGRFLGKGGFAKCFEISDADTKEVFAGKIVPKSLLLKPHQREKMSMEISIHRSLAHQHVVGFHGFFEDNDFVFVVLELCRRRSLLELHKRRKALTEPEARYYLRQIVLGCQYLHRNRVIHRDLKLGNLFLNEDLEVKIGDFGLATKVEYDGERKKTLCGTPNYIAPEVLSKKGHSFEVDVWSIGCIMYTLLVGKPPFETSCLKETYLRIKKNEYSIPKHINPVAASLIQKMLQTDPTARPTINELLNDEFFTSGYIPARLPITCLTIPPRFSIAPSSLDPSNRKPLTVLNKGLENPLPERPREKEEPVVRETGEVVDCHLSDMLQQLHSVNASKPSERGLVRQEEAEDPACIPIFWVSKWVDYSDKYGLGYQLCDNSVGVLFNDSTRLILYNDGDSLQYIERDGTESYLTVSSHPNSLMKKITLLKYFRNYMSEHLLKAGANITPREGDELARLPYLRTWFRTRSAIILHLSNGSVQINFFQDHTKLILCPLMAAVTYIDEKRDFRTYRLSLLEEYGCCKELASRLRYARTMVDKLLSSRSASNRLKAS

[2] = biological target: T2, Plk1 PBD (Homo sapiens, UniProt P53350); assay type: binding; design: host or cells: HEK293T, crude cytosolic lysate; settings: average ± SEM from five independent experiments
Target sequence in this assay (P53350 whole entry): as above
Description: All assay steps were performed at room temperature with gentle shaking. A biotinylated phosphopeptide (sequence: Biotin-Ahx-PMQS(pT)PLN-NH2) (46-48) was diluted with PBS 7.4 to 1 μM (from a 10 mM dimethylsulfoxide (DMSO) stock solution) and loaded onto the wells of a 96-well Neutravidin-coated plate (Pierce Biotechnology) at 100 μL per well for 1 hour. The wells were washed once with 150 μL PBST (PBS 7.4+0.05% Tween-20), and then 100 μL of 1% bovine serum albumin (BSA) in PBS 7.4 (blocking buffer) were added for 1 hour. The cytosolic lysate containing myc-tagged protein was diluted to 300 μg/mL in PBS 7.4 containing protease/phosphatase inhibitors (Pierce Biotechnology), mixed with competitive inhibitor (from a 10× stock in 5% DMSO/PBS), and allowed to pre-incubate for 1 h (100 μL per well in a 96-well plate, 30 μg total protein). […] The wells were then washed 5× with PBST (150 μL) and incubated with Turbo TMB-ELISA solution (Pierce Biotechnology) until the desired absorbance is reached (5-10 minutes). […] H2SO4 and the absorbance was measured at 450 nm using a BioTek Synergy 2 96-well plate reader.
Absorbance was plotted versus concentration (log M) and fit to a non-linear regression using GraphPad Prism 6 software (model: log(inhibitor) vs. response—Variable slope (four parameters)) to provide IC50 values. […]

[3] = biological target: T2, Plk1 PBD; assay: biochemical; assay type: binding; design: and Plk1 PBD (Plasmid #41162) (45) linked to a 3× myc tagged; host or cells: HEK293T, crude cytosolic lysate; settings: Cell Lysate ELISA IC50 (μM)
Description: HEK293T cells were plated on 10 cm culture dishes at 4M cells per plate. Following 24 h, the cells were transfected with 10 μg of plasmid DNA using 20 μL of TurboFect transfection reagent (Pierce Biotechnology) according to the manufacturer's instructions. Following 24 h, the cells were harvested using trypsin, washed with phosphate-buffered saline (PBS) 7.4 buffer, and lysed in lysis buffer (PBS 7.4+0.5% NP-40+protease/phosphatase inhibitor cocktail (Pierce Biotechnology)) using 3 freeze/thaw cycles. The lysed suspension was centrifuged at 10,000×G for 10 minutes to pellet membrane proteins and nuclei. The supernatant was removed to provide a crude cytosolic lysate containing expressed myc-tagged Plk1 or Plk1 PBD. The total protein concetration was determined using a Bicinchoninic Acid (BCA) assay kit (Pierce Biotechnology).
All assay steps were performed at room temperature with gentle shaking. A biotinylated phosphopeptide (sequence: Biotin-Ahx-PMQS(pT)PLN-NH2) (46-48) was diluted with PBS 7.4 to 1 μM (from a 10 mM dimethylsulfoxide (DMSO) stock solution) and loaded onto the wells of a 96-well Neutravidin-coated plate (Pierce Biotechnology) at 100 μL per well for 1 hour. The wells were washed once with 150 μL PBST (PBS 7.4+0.05% Tween-20), and then 100 μL of 1% bovine serum albumin (BSA) in PBS 7.4 (blocking buffer) were added for 1 hour. The cytosolic lysate containing myc-tagged protein was diluted to 300 μg/mL in PBS 7.4 containing protease/phosphatase inhibitors (Pierce Biotechnology), mixed with competitive inhibitor (from a 10× stock in 5% DMSO/PBS), and allowed to pre-incubate for 1 h (100 μL per well in a 96-well plate, 30 μg total protein). The blocked ELISA plate was washed 2× with PBST (150 μL) and the pre-incubated lysates were added to the plate to incubate for 1 hour. The wells were washed 4× with PBST (150 μL), then probed with anti-myc primary antibody (1:1500 dilution for assays that include macrocyclic peptidomimetic ligand of the present disclosure and 1:3000 dilution for all other assays, mouse monoclonal, Pierce Biotechnology) for 1 hour. […] The wells were then washed 5× with PBST (150 μL) and incubated with Turbo TMB-ELISA solution (Pierce Biotechnology) until the desired absorbance is reached (5-10 minutes). The reaction was quenched by the addition of 2M aq. H2SO4 and the absorbance was measured at 450 nm using a BioTek Synergy 2 96-well plate reader.
Compounds were evaluated for inhibition of Plk1 PBD binding to a pThrcontaining peptide by ELISA in cell lysates and by inhibition of cell proliferation in HeLa cells. Pmab=2(S)-amino-3(R)-methyl-4-phosphonobutanoic acid.
Target sequence in this assay (P53350 326-603 limits assumed): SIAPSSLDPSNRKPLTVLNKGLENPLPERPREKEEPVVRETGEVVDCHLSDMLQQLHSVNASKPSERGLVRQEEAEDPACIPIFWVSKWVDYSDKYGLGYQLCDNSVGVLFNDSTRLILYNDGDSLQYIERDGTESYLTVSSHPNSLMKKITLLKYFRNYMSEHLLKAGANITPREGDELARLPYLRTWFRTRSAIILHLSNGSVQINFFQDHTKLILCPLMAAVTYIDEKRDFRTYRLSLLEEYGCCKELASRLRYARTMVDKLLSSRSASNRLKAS

[4] = Table 7, compounds 2 and 3 tested simultaneously for direct comparison

| Compound | inhibitory potency in competitive ELISA versus parent peptide 1 (4j) [1] | IC50 [3, 4] | other results |
| --- | --- | --- | --- |
| CC(=O)N1CCC[C@H]1C(=O)N[C@@H](CC(C)C)C(=O)N[C@H]1C[C@H](CCCCCCCCc2ccccc2)C(=O)NCCCC[C@@H](C(N)=O)NC(=O)[C@H]([C@@H](C)OP=O)NC(=O)[C@H](CO)NC1=O (some centres unmarked) [15c, cPLE*SpTK] (HELM PEPTIDE1{[ac].P.L.[O=C([C@H](C[C@H](CCCCCCCCc1ccccc1)C(=O)[*:3])N[*:1])[*:2]].S.[C[C@@H](OP=O)[C@H](N[*:1])C(=O)[*:2]].K.[am]}$PEPTIDE1,PEPTIDE1,4:R3-7:R3$$$V2.0) | improved potencies versus the parent peptide 1 | – | – |
| CC(=O)N1CCC[C@H]1C(=O)N[C@@H](CC(C)C)C(=O)N[C@@H](Cc1cncn1CCCCCCCCc1ccccc1)C(=O)N[C@@H](CO)C(=O)N[C@H](C(N)=O)[C@@H](Cc1ccccc1)CP(=O)(O)O [18d] (HELM PEPTIDE1{[ac].P.L.[O=C([C@H](Cc1cncn1CCCCCCCCc1ccccc1)N[*:1])[*:2]].S.[O=C([C@@H](N[*:1])[C@@H](Cc1ccccc1)CP(=O)(O)O)[*:2]].[am]}$$$$V2.0; N-terminus assumed) | – | – | IC50 [2]: 300 ± 80 nM |
| CC(=O)N1CCCC1C(=O)N[C@@H](CC(C)C)C(=O)N[C@@H](Cc1cnc[nH]1)C(=O)N[C@@H](CO)C(=O)NC(C(N)=O)[C@@H](Cc1ccccc1)CP(=O)(O)O (some centres unmarked) [compound 15] (HELM PEPTIDE1{[ac].[O=C(C1CCCN1[*:1])[*:2]].L.H.S.[O=C(C(N[*:1])[C@@H](Cc1ccccc1)CP(=O)(O)O)[*:2]].[am]}$$$$V2.0) | – | 50 µM | – |
| CC(=O)N1CCC[C@H]1C(=O)N[C@@H](CC(C)C)C(=O)N[C@@H](Cc1cncn1CCCCCCCCc1ccccc1)C(=O)N[C@@H](CO)C(=O)N[C@H](C(N)=O)[C@@H](CCc1ccccc1)CP(=O)(O)O [18e] (HELM PEPTIDE1{[ac].P.L.[O=C([C@H](Cc1cncn1CCCCCCCCc1ccccc1)N[*:1])[*:2]].S.[O=C([C@@H](N[*:1])[C@@H](CCc1ccccc1)CP(=O)(O)O)[*:2]].[am]}$$$$V2.0; N-terminus assumed) | – | – | IC50 [2]: 70 ± 20 nM |
| CC(=O)N1CCC[C@H]1C(=O)N[C@@H](CC(C)C)C(=O)N[C@H]1C[C@H](CCCCCCCCc2ccccc2)C(=O)NCCC[C@@H](C(N)=O)NC(=O)[C@H]([C@@H](C)OP=O)NC(=O)[C@H](CO)NC1=O (some centres unmarked) [15a, cPLE*SpTO] (HELM PEPTIDE1{[ac].P.L.[O=C([C@H](C[C@H](CCCCCCCCc1ccccc1)C(=O)[*:3])N[*:1])[*:2]].S.[C[C@@H](OP=O)[C@H](N[*:1])C(=O)[*:2]].[Orn].[am]}$PEPTIDE1,PEPTIDE1,4:R3-7:R3$$$V2.0) | improved potencies versus the parent peptide 1 | – | – |
| CC(=O)N1CCCC1C(=O)N[C@@H](CC(C)C)C(=O)N[C@@H](Cc1cncn1CCc1ccccc1)C(=O)N[C@@H](CO)C(=O)NC(C(N)=O)C(C)OP(=O)(O)O (stereo in doubt) [compound 3] | – | 0.023 µM | IC50 ([3]; Table 6): 0.017 µM |
| CC(=O)N1CCCC1C(=O)N[C@@H](CC(C)C)C(=O)N[C@@H](Cc1cncn1CCc1ccccc1)C(=O)N[C@@H](CO)C(=O)NC(C(N)=O)C(C)CP(=O)(O)O (some centres unmarked) [compound 4] | – | – | IC50 ([3]; Table 6): 0.02 µM |
| CC(=O)N1CCC[C@H]1C(=O)N[C@@H](CC(C)C)C(=O)N[C@H]1C[C@H](CCCCCCCCc2ccccc2)C(=O)NCCC[C@@H](C(N)=O)NC(=O)[C@H]([C@@H](C)OP=O)NC(=O)[C@H](CO)NC1=O (some centres unmarked) [15b, cPLE*SpTo] (HELM PEPTIDE1{[ac].P.L.[O=C([C@H](C[C@H](CCCCCCCCc1ccccc1)C(=O)[*:3])N[*:1])[*:2]].S.[C[C@@H](OP=O)[C@H](N[*:1])C(=O)[*:2]].[Orn].[am]}$PEPTIDE1,PEPTIDE1,4:R3-7:R3$$$V2.0) | dramatic reductions in potency | – | – |
| CC(=O)N1CCC[C@H]1C(=O)N[C@@H](CC(C)C)C(=O)N[C@H]1C[C@H](CCCCCCCCc2ccccc2)C(=O)NCCCC[C@H](C(N)=O)NC(=O)[C@H]([C@@H](C)OP=O)NC(=O)[C@H](CO)NC1=O (some centres unmarked) [15d, cPLE*SpTk] (HELM PEPTIDE1{[ac].P.L.[O=C([C@H](C[C@H](CCCCCCCCc1ccccc1)C(=O)[*:3])N[*:1])[*:2]].S.[C[C@@H](OP=O)[C@H](N[*:1])C(=O)[*:2]].[dK].[am]}$PEPTIDE1,PEPTIDE1,4:R3-7:R3$$$V2.0) | dramatic reductions in potency | – | – |
| CC(=O)N1CCCC1C(=O)N[C@@H](CC(C)C)C(=O)N[C@@H](Cc1cncn1CCc1ccccc1)C(=O)N[C@@H](CO)C(=O)NC(C(N)=O)[C@@H](Cc1ccccc1)CP(=O)(O)O (some centres unmarked) [compound 16] | – | 0.035 µM | – |
